Measured values published in patent publication US9695162B2, “Sweet flavor modifier” (SENOMYX, INC., priority 2013, dated 2017).

Experiments:
[1] = tested on: human panelists (sweet taste); assay: Paired comparison taste test: enhancement of sucrose at pH 7.1 (6% sucrose + compound vs. 10%, 11% or 12% sucrose); format: in vivo
Procedure: (§1) Experiment 1: Sweet Flavor and Sweet Flavor Enhancement Measurement Using Human Panelists Conducting a Paired Comparison Test
(§2) Test samples containing experimental compounds were presented in pairs to the panelist and they were asked to determine which of the sample is sweeter. […] A group of 10-16 or more panelists participated in each test. Subjects refrained from eating or drinking (except water) for at least 1 hour prior to the test. Subjects rinsed with water several times to clean the mouth.
(§3) Taste tests were performed with sucrose or HFCS as the sweetener in the presence or absence of compound. A 0.2% stock solution of compound in water with sodium bicarbonate was prepared and then this stock solution was diluted in the final sample to achieve the targeted final concentration of compound. For the sample evaluated at pH 2.8 the pH of the solution is decreased to about pH 2.8 using citric acid. Taste samples were also prepared in a low sodium phosphate buffer (pH 7.1; “LSB”) lacking sucrose or HFCS to evaluate the taste of the compound alone. Low sodium phosphate buffer consists of 0.3 mM KCl, 0.5 mM Na2HPO4, and 0.175 mM KH2PO4. Sample volumes are usually 20 ml.
(§4) In one paired comparison test, the panelist was presented with two different samples and asked to identify the sample which is sweeter. The samples within a paired comparison test were presented in a randomized, counterbalanced order. Panelists had up to a 1 minute delay between taste tests to clear the mouth of any tastes.
(§5) Binomial probability tables were used to determine the probability of the correct number of responses occurring for each test at alpha=0.05

[2] = tested on: human panelists (sweet taste); assay: Paired comparison taste test: enhancement of sucrose at pH 2.8 (6% sucrose + compound vs. 10%, 11% or 12% sucrose); format: in vivo
Procedure: as §1, §2, §3, §4, §5

[3] = tested on: human panelists (sweet taste); assay: Sweetness threshold: paired comparison taste test, LSB + compound vs. 1% sucrose; format: in vivo
Procedure: as §1, §2, §3, §4, §5

[4] = tested on: human panelists (sweet taste); assay: Paired comparison taste test: enhancement of HFCS at pH 2.8 (6% HFCS + compound vs. 8% or 9% HFCS); format: in vivo
Procedure: as §1, §2, §3
In one paired comparison test, the panelist was presented with two different samples and asked to identify the sample which is sweeter. […]

[5] = 10% Sucrose vs 6% Sucrose + 10 ppm Compound A1, n = 32 (16 panelists × 2 reps)
[6] = 11% Sucrose vs 6% Sucrose + 5 ppm Compound A1, n = 33
[7] = 1% Sucrose vs LSB + 25 ppm Compound A1, n = 26 (13 panelists × 2 reps)

Row | Compound | melting point | Sample selected as sweeter by panelists (Total) [1, 5] | Sample selected as sweeter by panelists (Total) [2, 6] | Sample selected as sweeter by panelists (Total) [3, 7] | further results
1 | CC(C)(COc1cccc2c1C(N)=NS(=O)(=O)N2)NC(=O)c1ccncc1 [Compound A1, N-(1-(4-amino-2,2-dioxido-1H-benzo[c][1,2,6]thiadiazin-5-yloxy)-2-methylpropan-2-yl)isonicotinamide] | – | 18 | 12 | 12 | Sucrose solution of equivalent sweetness (% sucrose) ([1]; 10 ppm compound in 6% sucrose): ~10%; Sucrose solution of equivalent sweetness (% sucrose) ([2]; 5 ppm compound in 6% sucrose): ~11%; HFCS solution of equivalent sweetness (% High Fructose Corn Syrup) ([4]; 5 ppm compound in 6% High Fructose Corn Syrup): ~9%; Sample selected as sweeter by panelists (Total) ([4]; 9% High Fructose Corn Syrup vs 6% High Fructose Corn Syrup + 20 ppm Compound A1, n = 32 (16 panelists × 2 reps)): 12
2 | CC(C)(COc1cccc2c1C(N)=NS(=O)(=O)N2)NC(=O)c1ccnc(-n2cnc(CO)c2)c1 [Example 36, N-(1-((4-amino-2,2-dioxido-1H-benzo[c][1,2,6]thiadiazin-5-yl)oxy)-2-methylpropan-2-yl)-2-(4-(hydroxymethyl)-1H-imidazol-1-yl)isonicotinamide] | > 200 °C | – | – | – | –
3 | OC[C@H]1O[C@@](CO)(O[C@H]2O[C@H](CO)[C@@H](O)[C@H](O)[C@H]2O)[C@@H](O)[C@@H]1O [Sucrose, sucrose, reference compound] | – | 14 | 21 | 14 | Sample selected as sweeter by panelists (Total) ([1]; 11% Sucrose vs 6% Sucrose + 5 ppm Compound A6, n = 48 (16 panelists × 3 reps)): 24; Sample selected as sweeter by panelists (Total) ([2]; 12% Sucrose vs 6% Sucrose + 5 ppm Compound A6, n = 48 (16 panelists × 3 reps)): 22; Sample selected as sweeter by panelists (Total) ([3]; 1% Sucrose vs LSB + 10 ppm Compound A6, n = 30 (10 panelists × 3 reps)): 18

Further lines, with some results ahead:

Row | melting point | Compound | Sample selected as sweeter by panelists (Total) [1, 5] | Sample selected as sweeter by panelists (Total) [2, 6] | Sample selected as sweeter by panelists (Total) [3, 7] | further results
4 | > 200 °C | CC(C)(COc1cccc2c1C(N)=NS(=O)(=O)N2)NC(=O)c1ccnc(-n2cnc(C(=O)O)c2)c1 [Example 37, 1-(4-((1-((4-amino-2,2-dioxido-1H-benzo[c][1,2,6]thiadiazin-5-yl)oxy)-2-methylpropan-2-yl)carbamoyl)pyridine-2yl)1H-imidazole-4-carboxylic acid] | – | – | – | –
5 | 235 to 237 °C (dec.) | CC(C)(COc1cccc2c1C(N)=NS(=O)(=O)N2)NC(=O)c1ccnc(-n2ccnc2N)c1.Cl | – | – | – | –
